Data published in PMC11124362, “Metabolism, Disposition, Excretion, and Potential Transporter Inhibition of 7–16, an Improving 5-HT2A Receptor Antagonist and Inverse Agonist for Parkinson’s Disease” (Molecules, 2024).

Key:
[1] = Metabolite identification in mouse liver microsomes; type: in vitro ADME; details: 7–16 10 µM, liver microsomes 1 mg/mL, NADPH, 37 °C, 60 min
Description: (§1) In accordance with our previous methods, 7–16 (10 µM) was incubated with mouse, rat, dog, monkey, and human liver microsome proteins (1 mg/mL) in 100 mM sodium phosphate buffer (pH 7.4) containing 10 mM magnesium chloride and 2 mM NADPH at 37 °C for 60 min. All samples were prepared in duplicates. The reactions were terminated by adding three times the volume of ice-cold acetonitrile (600 µL) and stored at −20 °C until analysis. Control samples without NADPH and 0-time point samples were included. As a positive control, testosterone (10 µM), which was metabolized to produce the hydroxylation metabolite, was used as a substrate to confirm the activity of the incubation system.
(§2) After pre-treatments, the samples were analyzed by an Acquity UPLC system coupled with a diode array detector (Waters Corporation, Milford, MA, USA) and Q Exactive HRMS (Thermo Electron Corporation, Waltham, MA, USA) (UPLC–UV-Q Exactive HRMS). Samples were separated on an Agilent XDB C18 column (150 × 2.1 mm i.d. 3.5 μm, Agilent Corporation, Santa Clara, CA, USA) at 40 °C by gradient elution with water and acetonitrile containing 0.1% formic acid. The flow rate was 0.40 mL/min. The ultraviolet (UV) detection wavelength was 286 nm. Q Exactive HRMS were operated at positive ion mode (3.5 kV) using a heating electrospray ionization source. Mass calibration was required to be performed before conducting experiments so as to achieve the best mass accuracy and mass calibration should be performed every five days. The metabolites were detected by full MS/dd-MS^2 analysis from m/z 100 to m/z 1000. The resolution of the first-class scan and second-class scan was 70,000 and 17,500, respectively. Thermo Compound Discover software was used to identify expected and unknown metabolites, and we finally proposed the 7–16 metabolic pathways based on the deduced metabolites and relevant drug biotransformation knowledge.

[2] = Metabolite identification in monkey liver microsomes; type: in vitro ADME; details: 7–16 10 µM, liver microsomes 1 mg/mL, NADPH, 37 °C, 60 min
Description: as §1, §2

[3] = Metabolite identification in human liver microsomes; type: in vitro ADME; details: 7–16 10 µM, liver microsomes 1 mg/mL, NADPH, 37 °C, 60 min
Description: as §1, §2

[4] = Metabolite identification in rat liver microsomes; type: in vitro ADME; details: 7–16 10 µM, liver microsomes 1 mg/mL, NADPH, 37 °C, 60 min
Description: as §1, §2

[5] = Excretion and metabolite identification in urine and feces of intact rats; type: in vivo, Sprague-Dawley rats; details: for Dose% Feces, female / Dose% Urine, female: female rats; for Dose% Feces, female / Dose% Urine, female / Dose% Feces, male / Dose% Urine, male: single oral dose [14C]7–16 3 mg/100 µCi/kg; for Dose% Feces, male / Dose% Urine, male: male rats
Description: (§3) In the urine and feces excretion experiment, six rats (3 females and 3 males) were administered a single oral dose of [^14C]7–16 at 3 mg/100 µCi/kg. Urine, feces and cage washing/cleaning solution samples were collected from 0 to 168 h following drug administration at the following time intervals: 0–8, 8–24 h (0–24 h for feces), 24–48, 48–72, 72–96, 96–120, 120–144, and 144–168 h. In the biliary excretion experiment, 8 rats using a bile duct cannula (BDC) (4 females and 4 males) were administered a single oral dose of [^14C]7–16 at 3 mg/100 µCi/kg. Bile, urine, feces, and cage washing solution were collected from before and 0–72 h after oral administration at the following time intervals: 0–4, 4–8 (urine 0–8), 8–24 (feces 0–24), 24–48, and 48–72 h. All samples were collected and refrigerated at −20 °C until determination of the radioactive concentrations by liquid scintillation counter (Perkin Elmer Corporation, Waltham, MA, USA). Urine, feces, and bile samples at each time period were mixed by equal percentages of either volume or weight. After the mixed samples were treated, the radio-profiles and metabolite identification in the bile, urine, and feces samples were carried out by LC-RAM and UPLC-Q Exactive HRMS, and the TRA% of each metabolite in plasma and the percentage of dose (dose%) of each compound in urine, feces, and bile samples were calculated.

[6] = Metabolite identification in rat plasma after oral [14C]7–16; type: in vivo, Sprague-Dawley rats; details: single oral dose [14C]7–16 3 mg/100 µCi/kg, pooled plasma 0.25-24 h; for TRA% Plasma, female: female rats; for TRA% Plasma, male: male rats
Description: The rats received a single oral dose of [^14C]7–16 at 3 mg/100 µCi/kg (3 females and 3 males for each time point). At 0.25, 1, 6, and 24 h after administration, about 0.3 mL of blood was collected into a collection vessel containing K2-EDTA anticoagulant by cardiac puncture, and the plasma samples were acquired after centrifugation at 8000 rpm for 10 min at 4 °C. All samples were stored at −20 °C until analysis. The rat plasma samples at each time point were mixed in accordance with the area under the concentration curve contribution at corresponding time intervals. After the pooled plasma samples were pre-treated, the radio-profiles of plasma samples were detected using Shimadzu LC coupled with a radioactivity monitor (LC-RAM, Scintillation and Luminescence Counter Technology, Perkin Elmer Corporation, Waltham, MA, USA), and the metabolites were identified by UPLC-QE HRMS (Thermo Electron Corporation, Waltham, MA, USA). The percentage of each metabolite based on the total radiation intensity (TRA%) in plasma samples was calculated. The structures of metabolites were identified by the same method used for metabolite identification in the liver microsomes of different species.

[7] = Metabolite identification in dog liver microsomes; type: in vitro ADME; details: 7–16 10 µM, liver microsomes 1 mg/mL, NADPH, 37 °C, 60 min
Description: as §1, §2

[8] = Excretion and metabolite identification in bile duct cannulated (BDC) rats; type: in vivo, Sprague-Dawley rats; details: single oral dose [14C]7–16 3 mg/100 µCi/kg; for Dose% Bile, female: female BDC rats; for Dose% Bile, male: male BDC rats
Description: as §3

Structure (SMILES)	Relative Abundance, UV Area% Mouse [1] [%]	Relative Abundance, UV Area% Monkey [2] [%]	Relative Abundance, UV Area% Human [3] [%]	Relative Abundance, UV Area% Rat [4] [%]	Dose% Feces, female [5] [%]	Dose% Urine, female [5] [%]	Dose% Feces, male [5] [%]	Dose% Urine, male [5] [%]	TRA% Plasma, female [6] [%]	TRA% Plasma, male [6] [%]	Relative Abundance, UV Area% Dog [7] [%]	Dose% Bile, female [8] [%]	Dose% Bile, male [8] [%]	recovery of radioactivity within the first 24 h, percent of dose ([5]; intact rats, first 24 h post-administration) [%]
CN1CCC(N(Cc2ccc(F)cn2)C(=O)NCc2ccc(O)cc2)CC1 [Compound M372]	0.61	2.52	0.60	1.10	4.97	4.34	5.42	5.75	1.11	2.50	1.73	0.41	0.83	–
O=C(NCc1ccc(OCC(F)(F)F)cc1)N(Cc1ccc(F)cn1)C1CCNCC1 [Compound M440]	0.39	1.73	0.78	1.29	21.1	2.66	24.2	5.77	1.40	3.70	0.47	2.71	3.83	–
CN1CCC(N(Cc2ccc(F)cn2)C(=O)N[14CH2]c2ccc(OCC(F)(F)F)cc2)CC1 [[^14C]7–16]	–	–	–	–	16.8	23.6	5.29	9.79	81.9	57.3	–	0.76	0.53	76.8
